Measurements reported in patent US7189701B1, “Tetrapeptide stimulating functional activity of neurons pharmacological agent based thereon and method of use thereof” (Sankt-Petersburgskaya Obschestvennaya Organizatsiya …, priority 1999, dated 2007).
Residues, ends and D or L forms follow the SMILES beside them.

How the values were obtained:
[1] = tested on: rats with severe craniocerebral compression; test: Acute severe craniocerebral injury model (CRAA learning, rotating pivot); format: in vivo
Procedure: Effect of L-Ala-L-Glu-L-Asp-L-Pro tetrapeptide on repair processes in the brain was assessed on the model of acute severe craniocerebral injury. Dynamics of the CNS functional restoration was defined by the tests on the coordination of movements and muscular tonus of the animals as well as on their abilities for learning and reproduction of conditioned reflex skills.
Severe craniocerebral compression in the rats was caused by a falling lead weight. In 1, 12, 48 and 96 hours the experimental animals were intramuscularly injected with L-Ala-L-Glu-L-Asp-L-Pro tetrapeptide. Animals in the 2nd group received Cerebrolysin.
Abilities for learning and skill reproduction were estimated by the test on the conditioned reflex of active avoidance (CRAA). To estimate the muscular tonus and coordination of movements the rats were rotated on a pivot at an increasing speed. Simultaneously, the retention time was measured.

[2] = tested on: patients with vascular dementia; test: Preliminary clinical trial in patients with vascular dementia; format: in vivo, human; conditions: 3 μg intramuscularly once daily for 30 days
Procedure: Twelve patients aged 69 to 76 years (7 males and 5 females) suffering from hypertensive disease and atherosclerosis of cerebral vessels for a long time were enrolled in the study. Three of them had apoplexy in their medical histories. Initial data obtained in the similar patients before the treatment was used as control. L-Ala-L-Glu-L-Asp-L-Pro tetrapeptide was intramuscularly injected in a single dose of 3 μg once daily for 30 days.
Results were assessed after the treatment in comparison with the data obtained before the treatment. Basing on the examination results, changes in the patients' state were defined according to the following gradation: improvement (substantial, average or minor), deterioration, no changes.
At the pretreatment examination signs of intellectual-mnemic defect were found in all the patients: memory impairment, intellectual deterioration, aphasia, apraxia and agraphia disorders. In 9 patients signs of disorientation in time and place were found. The patients' emotional state was labile, manifested with periodical alternation of apathy and euphoria, complacency and anger aptness.

rats = test: Serotonin metabolism in the brain, model of electrically induced pain stress; format: in vivo
Procedure: In an hour the content of serotonin and its metabolite, 5-oxyindoleacetic acid, was measured in the parietal and posterior frontal regions of the brain.
Compensatory in character, the stimulation of serotonin metabolism diminishes the emotional perception of a pain impact, Natural “drawback” of the said mechanism consists in a quick transition to the state of decompensation. In control (untreated stress) the level of serotonin lowered, while that of 5-oxyindoleacetic acid rose (metabolic depletion phase).

[3] = tested on: mice with compressed fibular nerve; test: Regeneration of the compressed peripheral (fibular) nerve, electrophysiological tests; format: in vivo; conditions: 10 μg/kg i.p. daily for 8 days
Procedure: The study was accomplished on 22 white unbred male mice weighing 25 to 30 g (7 experimental and 15 control animals).
At the 1st stage of the study, the mice were chronically operated on to compress the fibular nerve. The fibular nerve (n. peroneus communus) in the Nembutal-narcotised mice (60 mg/kg, intraperitoneally) was compressed at a distance of 8 to 9 mm from the innervated muscle—long digital extensor (m. extensor digitorum longus—EDL). The animals were operated on the left hind leg, whilst the corresponding nerve and muscle of the right leg were intact and used further as an intact control.
Afterwards, since the 3rd day after the nerve compression, the mice were intraperitoneally injected with L-Ala-L-Glu-L-Asp-L-Pro tetrapeptide in dose 10 μg/kg, daily for 8 days. The control mice were treated with an equivalent amount of saline.
On the 11th day after the nerve compression surgery (and within 24 hours after the last tetrapeptide injection), the Nembutal-narcotised mice (60 mg/kg) were subject in vivo to electrophysiological tests for different functional parameters of the already germinated nerve and reinnervated skeletal muscular fibres (EDL).

white unbred rats = test: Subacute toxicity, 90 days intramuscular; format: in vivo; conditions: intramuscular daily for 90 days, 1 μg/kg, 0.3 mg/kg, 3 mg/kg
Procedure: Subacute toxicity of L-Ala-L-Glu-L-Asp-L-Pro (SEQ ID NO:1) tetrapeptide was studied on 60 white unbred rats weighing 150 to 250 g. The experimental animals were administered the preparation intramuscularly once a day, daily for 90 days in doses 1 μg/kg, 0.3 mg/kg, 3 mg/kg in 0.5 ml of saline. The control animals were administered the similar amount of saline.
Within the entire period of study the animals were under daily supervision. Animals' behaviour, food and water consumption, the state of their hair integument and mucous membranes were registered. The animals were weighed once a week. Prior to and on the 30th, 60th and 90th days of the drug administration, the morphologic composition and properties of the peripheral blood in the animals were examined. Upon the study completion, biochemical and coagulologic blood indices were explored.

white unbred male mice = test: Acute toxicity according to Kerber, single intramuscular administration; format: in vivo
Description: Possible toxic effects of L-Ala-L-Glu-L-Asp-L-Pro (SEQ ID NO:1) tetrapeptide on the organism were studied in compliance with “The rules of preclinical estimation of safety of pharacological agents” (GLP) approved by the Department of State Control on Medicinal Agents and Medical Equipment of the Russian Federation of Dec. 29, 1997.
Objective of the study consisted in defining the tolerable toxic drug doses of the agent, estimating the stage and character of pathologic alterations in various organs and systems and in exploring the correlation between the toxic effects and the dose and duration of the drug application.
Acute toxicity of L-Ala-L-Glu-L-Asp-L-Pro (SEQ ID NO:1) tetrapeptide was determined according to Kerber. The study was performed on 66 white unbred male mice weighing 20 to 23 g kept in vivarium under standard regimen and fed upon standard rations. The animals were randomly divided into 6 equal groups by 11 mice in each. The animals were subject to a single intramuscular administration of 0.25 ml of the preparation in doses 1 mg/kg, 2 mg/kg, 3 mg/kg, 4 mg/kg, 5 mg/kg (several thousand times exceeding the therapeutic dose recommended for clinical trials). The control animals were administered the similar amount of saline.

[4] = 5 μg/kg, post-stress introduction, measured in an hour

SMILES: C[C@H](N)C(=O)N[C@@H](CCC(=O)O)C(=O)N[C@@H](CC(=O)O)C(=O)N1CCC[C@H]1C(=O)O [L-Ala-L-Glu-L-Asp-L-Pro tetrapeptide, L-Alanyl-L-Glutamyl-L-Aspartyl-L-Proline] (H-AEDP-OH)
- time of retention on the rotating pivot relative to control ([1]; 48 hours after the trauma): twice exceeded that in control
- number of trainable animals relative to controls (CRAA) ([1]; 96 hours after trauma, intramuscular in 1, 12, 48 and 96 hours): twice as much as that in the controls
- indices of learning relative to control ([1]; in 30 days): higher than those in control
- patients showing reverse development of the pathologic symptoms [2]: 74.8%
- content of 5-oxyindoleacetic acid in the brain (rats; [4]): diminished
- content of serotonin in the brain (rats; [4]): increased
- levels of serotonin and its metabolite (rats; intact animals): did not induce any changes
- improvement of the electric threshold of the regenerating nerve ([3]; 11th day after nerve compression): 30–50%
- acetyl choline muscular contraction rate ([3]; FIG. 3): tendency to diminish
- shortening of the latent M-response period ([3]; intact neuromuscular system): 89%
- shortening of the latent M-response period ([3]; regenerating nerve (and the muscle)): 59%
- side effects, subacute toxicity (white unbred rats): absence of any side effects
- acute toxic reactions (white unbred male mice; doses several thousand times exceeding the therapeutic one): did not induce any acute toxic reactions
- alterations in the general state, behaviour, motional activity, hair and skin integument, physiologic discharges (white unbred male mice; single intramuscular 1-5 mg/kg): No alterations
- death of mice (white unbred male mice; single intramuscular 1-5 mg/kg, within 72 hours and in 14 days): none of the mice in either of the groups died
